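Cells were grown in 96-well plates and exposed to each compound for 48 hours at five concentrations; endpoints were interpolated linearly between bracketing concentrations, or set to the highest concentration if not reached. The concentration for 50% growth inhibition is given as GI50.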 Active and inactive are the calls of the source. Cut-off read from the data, not from the text of the source: active = GI50 up to about 1.1 µM and inactive = higher.
What was measured:
Assay in all cases: NCI anticancer screen, dose series, 48 h
[1] = tested on: OVCAR-4
[2] = tested on: SR
[3] = tested on: HOP-92
[4] = tested on: SK-MEL-2
[5] = tested on: MDA-MB-435
[6] = tested on: Malme-3M
[7] = tested on: HOP-62
[8] = tested on: A498
[9] = tested on: MOLT-4
[10] = tested on: CCRF-CEM
[11] = tested on: OVCAR-8
[12] = tested on: EKVX
[13] = tested on: MCF7
[14] = tested on: 786-0
[15] = tested on: SK-MEL-28
[16] = tested on: HL-60
[17] = tested on: OVCAR-5
[18] = tested on: SF-295
[19] = tested on: IGROV-1
[20] = tested on: LOX IMVI

Measured: GI50

O=C(N/N=C\c1cccc2c([N+](=O)[O-])cccc12)Nc1ccccc1
inactive: [1] 11.6 µM | [2] 11.3 µM | [3] 12.3 µM | [4] 2.27 µM | [5] 9.29 µM | [6] 14.1 µM | [7] 16.2 µM | [8] 16.5 µM | [9] 13.4 µM | [10] 10.5 µM | [11] 12 µM | [12] 15.5 µM | [13] 8.83 µM | [14] 16.6 µM | [15] 16.4 µM | [16] 14.7 µM | [17] 15.1 µM | [18] 13.9 µM | [19] 19 µM | [20] 7.74 µM

Reference: ChEMBL document CHEMBL1201862, “PubChem BioAssay data set” (2004)
